Measured values from patent US20260250290A1 (BRISTOL-MYERS SQUIBB COMPANY, priority 2023, published 2026).
Counter-ions that a name gives are not always drawn.

Target: T1, full length SGK1 (Homo sapiens, UniProt O00141)
T1 construct: 125 μM full length SGK1 (Life Technologies Part #PR7358A); purchased Life Technologies PR7358A
T1 sequence (O00141 1-431): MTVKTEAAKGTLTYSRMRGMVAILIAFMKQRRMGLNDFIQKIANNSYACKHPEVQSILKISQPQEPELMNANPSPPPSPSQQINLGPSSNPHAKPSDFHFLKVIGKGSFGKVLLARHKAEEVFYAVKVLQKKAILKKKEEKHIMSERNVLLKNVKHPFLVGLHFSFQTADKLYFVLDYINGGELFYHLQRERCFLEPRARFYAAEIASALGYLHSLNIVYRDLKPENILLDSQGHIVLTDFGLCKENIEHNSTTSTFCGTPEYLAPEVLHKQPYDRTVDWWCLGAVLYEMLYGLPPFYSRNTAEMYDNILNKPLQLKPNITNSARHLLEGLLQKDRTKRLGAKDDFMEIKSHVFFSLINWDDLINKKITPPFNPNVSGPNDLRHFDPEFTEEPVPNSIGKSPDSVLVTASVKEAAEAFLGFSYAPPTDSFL
Assay: SGK1 inhibition Assay A (Caliper LabChip electrophoretic separation of fluorescent peptide substrate and phosphorylated product)
Assay type: biochemical
Details: Assay A; 20 μM ATP, 40 min incubation; read-out: SGK1 IC50

IC50 [nM]	Compound
35	CN(C)CCOc1cc(Cl)sc1C(=O)N[C@@H]1CCCN(c2cc(C3=CCN(C(=O)C4CC4)CC3)n3ncnc(N)c23)C1 [Example 182, (R)-N-(1-(4-amino-7-(1-(cyclopropanecarbonyl)-1,2,3,6-tetrahydropyridin-4-yl)pyrrolo[2,1-f][1,2,4]triazin-5-yl)piperidin-3-yl)-5-chloro-3-(2-(dimethylamino)ethoxy) thiophene-2-carboxamide, 2 TFA]
482	CC(=O)N1CC=C(c2cc(N3CCC[C@@H](NC(=O)N4CC[C@@H](O)C4)C3)c3c(N)ncnn23)C1 [Example 874, (R)—N—((R)-1-(7-(1-acetyl-2,5-dihydro-1H-pyrrol-3-yl)-4-aminopyrrolo[2,1-f][1,2,4]triazin-5-yl)piperidin-3-yl)-3-hydroxypyrrolidine-1-carboxamide]
450	Cc1nc(C)c(C(=O)N[C@@H]2CCCN(c3cc(-c4cncnc4)n4ncnc(N)c34)C2)s1 [Example 511, (R)-N-(1-(4-amino-7-(pyrimidin-5-yl)pyrrolo[2,1-f][1,2,4]triazin-5-yl)piperidin-3-yl)-2,4-dimethylthiazole-5-carboxamide]
17	CN(C)CCOc1cc(Cl)sc1C(=O)N[C@@H]1CCCN(c2cc(C3=CCN(C(=O)CC(F)(F)F)CC3)n3ncnc(N)c23)C1 [Example 181, (R)-N-(1-(4-amino-7-(1-(3,3,3-trifluoropropanoyl)-1,2,3,6-tetrahydropyridin-4-yl)pyrrolo[2,1-f][1,2,4]triazin-5-yl)piperidin-3-yl)-5-chloro-3-(2-(dimethylamino)ethoxy) thiophene-2-carboxamide, 2 TFA]
53	Nc1ncnn2c(-c3ccnc(C(F)F)c3)cc(N3CCC[C@@H](NC(=O)c4nc5ccccc5[nH]4)C3)c12 [Example 489, (R)-N-(1-(4-amino-7-(2-(difluoromethyl)pyridin-4-yl)pyrrolo[2,1-f][1,2,4]triazin-5-yl)piperidin-3-yl)-1H-benzo[d]imidazole-2-carboxamide]
731	NC(=O)Cn1cc(-c2cc(N3CCC[C@@H](NC(=O)c4ccc(Cl)s4)C3)c3c(N)ncnn23)nn1 [Example 865, (R)—N-(1-(4-amino-7-(1-(2-amino-2-oxoethyl)-1H-1,2,3-triazol-4-yl)pyrrolo[2,1-f][1,2,4]triazin-5-yl)piperidin-3-yl)-5-chlorothiophene-2-carboxamide]
2	CC(=O)N1CC=C(c2cc(N3CCC[C@@H](NC(=O)c4sc(Cl)cc4OCC4CCCN4)C3)c3c(N)ncnn23)C1 (single isomer, unassigned) [Example 391D]
6	COc1cc(C(=O)N[C@@H]2CCCN(c3cc(-c4ccc(S(C)(=O)=O)cc4)n4ncnc(N)c34)C2)sn1 [Example 71, (R)-N-(1-(4-amino-7-(4-(methylsulfonyl)phenyl)pyrrolo[2,1-f][1,2,4]triazin-5-yl)piperidin-3-yl)-3-methoxyisothiazole-5-carboxamide]
7	CC(=O)N1CC=C(c2cc(N3CCC[C@@H](NC(=O)c4csc(-c5ccccc5)n4)C3)c3c(N)ncnn23)C1 [Example 453, (R)-N-(1-(7-(1-acetyl-2,5-dihydro-1H-pyrrol-3-yl)-4-aminopyrrolo[2,1-f][1,2,4]triazin-5-yl)piperidin-3-yl)-2-phenylthiazole-4-carboxamide]
164	Nc1ncnn2c(-c3cncnc3)cc(N3CCC[C@@H](NC(=O)c4cc5cc(F)ccc5[nH]4)C3)c12 [Example 516, (R)-N-(1-(4-amino-7-(pyrimidin-5-yl)pyrrolo[2,1-f][1,2,4]triazin-5-yl)piperidin-3-yl)-5-fluoro-1H-indole-2-carboxamide]
24	CC(=O)N1CC=C(c2cc(N3CCC[C@@H](NC(=O)c4cccc(NCCS(C)(=O)=O)n4)C3)c3c(N)ncnn23)C1 [Example 767, (R)-N-(1-(7-(1-acetyl-2,5-dihydro-1H-pyrrol-3-yl)-4-aminopyrrolo[2,1-f][1,2,4]triazin-5-yl)piperidin-3-yl)-6-((2-(methylsulfonyl)ethyl)amino)picolinamide]
67	COc1ccc(C(=O)NC2CCCN(c3cc(-c4ccc(S(C)(=O)=O)cc4)n4ncnc(N)c34)C2)cc1 (stereo not drawn) [Example 8, N-(1-(4-amino-7-(4-(methylsulfonyl)phenyl)pyrrolo[2,1-f][1,2,4]triazin-5-yl)piperidin-3-yl)-4-methoxybenzamide, TFA]
98	CC(=O)N1CC=C(c2cc(N3CCC[C@@H](NC(=O)c4cc(C5CC5)n(C)n4)C3)c3c(N)ncnn23)C1 [Example 739, (R)-N-(1-(7-(1-acetyl-2,5-dihydro-1H-pyrrol-3-yl)-4-aminopyrrolo[2,1-f][1,2,4]triazin-5-yl)piperidin-3-yl)-5-cyclopropyl-1-methyl-1H-pyrazole-3-carboxamide]

Second part, the compound before the results:

Compound	IC50 [nM]
CC(=O)N1CC=C(c2cc(N3CCC[C@@H](NC(=O)c4sc(-c5ccnc(C(F)F)c5)cc4OCCN(C)C)C3)c3c(N)ncnn23)C1 [Example 555, (R)-N-(1-(7-(1-acetyl-2,5-dihydro-1H-pyrrol-3-yl)-4-aminopyrrolo[2,1-f][1,2,4]triazin-5-yl)piperidin-3-yl)-5-(2-(difluoromethyl)pyridin-4-yl)-3-(2-(dimethylamino)ethoxy)thiophene-2-carboxamide]	7
COC(=O)N1CC=C(c2cc(N3CCC[C@@H](NC(=O)c4sc5ccc(F)cc5c4OC4CCNCC4)C3)c3c(N)ncnn23)C1 [Example 686, methyl (R)-3-(4-amino-5-(3-(5-fluoro-3-(piperidin-4-yloxy)benzo[b]thiophene-2-carboxamido)piperidin-1-yl)pyrrolo[2,1-f][1,2,4]triazin-7-yl)-2,5-dihydro-1H-pyrrole-1-carboxylate]	7
CN1CCN(c2cccc(C(=O)N[C@@H]3CCCN(c4cc(-c5ccc(-n6cncn6)nc5)n5ncnc(N)c45)C3)n2)CC1 [Example 800, (R)-N-(1-(7-(6-(1H-1,2,4-triazol-1-yl)pyridin-3-yl)-4-aminopyrrolo[2,1-f][1,2,4]triazin-5-yl)piperidin-3-yl)-6-(4-methylpiperazin-1-yl)picolinamide]	17
COC(=O)N1CC=C(c2cc(N3CCC[C@@H](NC(=O)c4sc(Cl)cc4OC4CN(C5CCOCC5)C4)C3)c3c(N)ncnn23)C1 [Example 573, Methyl (R)-3-(4-amino-5-(3-(5-chloro-3-((1-(tetrahydro-2H-pyran-4-yl)azetidin-3-yl)oxy)thiophene-2-carboxamido)piperidin-1-yl)pyrrolo[2,1-f][1,2,4]triazin-7-yl)-2,5-dihydro-1H-pyrrole-1-carboxylate]	73
Cc1cc(-c2cc(N3CCC[C@@H](NC(=O)c4sc(C(F)F)cc4OCCN(C)C)C3)c3c(N)ncnn23)cc(C(F)F)n1 [Example 312, (R)-N-(1-(4-amino-7-(2-(difluoromethyl)-6-methylpyridin-4-yl)pyrrolo[2,1-f] [1,2,4]triazin-5-yl)piperidin-3-yl)-5-(difluoromethyl)-3-(2-(dimethylamino)ethoxy)thiophene-2-carboxamide]	32
CC(=O)N1CCC(Oc2cc(C(F)F)sc2C(=O)N[C@@H]2CCCN(c3cc(C4=CCN(C(C)=O)C4)n4ncnc(N)c34)C2)CC1 [Example 412, (R)-N-(1-(7-(1-acetyl-2,5-dihydro-1H-pyrrol-3-yl)-4-aminopyrrolo[2,1-f][1,2,4]triazin-5-yl)piperidin-3-yl)-3-((1-acetylpiperidin-4-yl)oxy)-5-(difluoromethyl)thiophene-2-carboxamide]	50
COc1ccc(OC)c(C(=O)N[C@@H]2CCCN(c3cc(-c4ccc(S(C)(=O)=O)cc4)n4ncnc(N)c34)C2)c1 [Example 56, (R)-N-(1-(4-amino-7-(4-(methylsulfonyl)phenyl)pyrrolo[2,1-f][1,2,4]triazin-5-yl)piperidin-3-yl)-2,5-dimethoxybenzamide, TFA]	486
CC(C)c1cccc(C(=O)N[C@@H]2CCCN(c3cc(-c4ccc(S(C)(=O)=O)cc4)n4ncnc(N)c34)C2)c1 [Example 81, (R)-N-(1-(4-amino-7-(4-(methylsulfonyl)phenyl)pyrrolo[2,1-f][1,2,4]triazin-5-yl)piperidin-3-yl)-3-isopropylbenzamide]	32
Nc1ncnn2c(-c3ccnc(C(F)F)c3)cc(N3CCC[C@@H](NC(=O)c4sc(C(F)F)cc4N4CCOCC4)C3)c12 [Example 344, (R)—N-(1-(4-amino-7-(2-(difluoromethyl)pyridin-4-yl)pyrrolo[2,1-f][1,2,4]triazin-5-yl)piperidin-3-yl)-5-(difluoromethyl)-3-morpholinothiophene-2-carboxamide]	7
COC(=O)N1CC=C(c2cc(N3CCC[C@@H](NC(=O)c4sc(Cl)cc4OC4CCNC(C)C4)C3)c3c(N)ncnn23)C1 (stereo partly drawn) [Example 624, Methyl 3-(4-amino-5-((3R)-3-(5-chloro-3-((2-methylpiperidin-4-yl)oxy)thiophene-2-carboxamido)piperidin-1-yl)pyrrolo[2,1-f][1,2,4]triazin-7-y1)-2,5-dihydro-1H-pyrrole-1-carboxylate]	7
(R)-N-(1-(4-amino-7-(1-(2,2-difluoroethyl)-6-oxo-1,6-dihydropyridin-3-yl)pyrrolo[2,1-f][1,2,4]triazin-5-yl)piperidin-3-yl)-5-chlorothiophene-2-carboxamide [Example 520]	3
